The results in this text go back to PubChem BioAssay AID248 (DTP/NCI, 2004).

Molecules are shown by their SMILES. Inconclusive results and toxic doses are left out.

This assay relates to L1210 leukemia ip in BDF1 mice, survival T/C. Briefly: NCI In Vivo Anticancer Drug Screen. Data for tumor model L1210 Leukemia (intraperitoneal) in B6D2F1 (BDF1) mice. The note with it: endpoint: mean survival time, higher = longer survival. The gist of the method: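 Each compound was tested against a transplantable tumor grown in mice. The endpoint was survival, with treated animals benchmarked against vehicle controls as a simple ratio.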

[1] abbreviates: dose: 100.0 mg/kg/injection, schedule: Q04DX003 (ip), vehicle: Klucel (hydroxypropylcellulose) (HPC).
[2] abbreviates: dose: 100.0 mg/kg/injection, schedule: Q01DX001 (ip), vehicle: saline.
[3] abbreviates: dose: 400.0 mg/kg/injection, schedule: Q01DX001 (ip), vehicle: saline.
Setting [4] is: dose: 200.0 mg/kg/injection, schedule: Q01DX001 (ip), vehicle: saline.

`CCOc1ccn(C2OC(CI)C(OC3OC(COC(C)=O)C(OC(C)=O)C(OC(C)=O)C3OC(C)=O)C(OC(C)=O)C2OC(C)=O)c(=O)n1` (configuration not stated): the T/C runs as follows: (dose: 22.5 mg/kg/injection, schedule: Q01DX001 (ip), vehicle: carboxymethylcellulose (CMC)) 100 % of control; (dose: 45.0 mg/kg/injection, schedule: Q01DX001 (ip), vehicle: carboxymethylcellulose (CMC)) 100 % of control; (dose: 90.0 mg/kg/injection, schedule: Q01DX001 (ip), vehicle: carboxymethylcellulose (CMC)) 97 % of control; (dose: 180.0 mg/kg/injection, schedule: Q01DX001 (ip), vehicle: carboxymethylcellulose (CMC)) 103 % of control.

`CCCCN(C)N=Nc1c(Cl)cc(Cl)cc1C(N)=O`: the T/C reads like this: (dose: 100.0 mg/kg/injection, schedule: Q01DX001 (ip), vehicle: other) 106 % of control; under setting [1], 106 % of control; (dose: 200.0 mg/kg/injection, schedule: Q01DX001 (ip), vehicle: other) 107 % of control; (dose: 200.0 mg/kg/injection, schedule: Q01DX009 (ip), vehicle: Klucel (hydroxypropylcellulose) (HPC)) 95 % of control; (dose: 264.0 mg/kg/injection, schedule: Q01DX001 (ip), vehicle: Klucel (hydroxypropylcellulose) (HPC)) 114 % of control; (dose: 400.0 mg/kg/injection, schedule: Q01DX001 (ip), vehicle: Klucel (hydroxypropylcellulose) (HPC)) 124 % of control. For the same compound, where the note is “dose: 400.0 mg/kg/injection, schedule: Q04DX003 (ip), vehicle: Klucel (hydroxypropylcellulose) (HPC)”, the T/C was 181 % of control.

As to `Cc1cc(C(=O)O)c(CN)c(=O)n1C`, the T/C by setting is: (dose: 100.0 mg/kg/injection, schedule: Q04DX003 (ip), vehicle: water) 102 % of control; (dose: 200.0 mg/kg/injection, schedule: Q04DX003 (ip), vehicle: water) 103 % of control; (dose: 400.0 mg/kg/injection, schedule: Q04DX003 (ip), vehicle: water) 102 % of control.

`C#CC(OC(=O)NC)(c1ccccc1)c1ccc(OC)cc1` (configuration not stated): the T/C is 112 % of control (dose: 6.25 mg/kg/injection, schedule: Q01DX009 (ip), vehicle: Klucel (hydroxypropylcellulose) (HPC)); 120 % of control (dose: 11.0 mg/kg/injection, schedule: Q01DX006 (ip), vehicle: Klucel (hydroxypropylcellulose) (HPC)); 114 % of control (dose: 12.5 mg/kg/injection, schedule: Q01DX009 (ip), vehicle: Klucel (hydroxypropylcellulose) (HPC)); 115 % of control (dose: 25.0 mg/kg/injection, schedule: Q01DX006 (ip), vehicle: Klucel (hydroxypropylcellulose) (HPC)); 109 % of control (dose: 37.0 mg/kg/injection, schedule: Q01DX006 (ip), vehicle: Klucel (hydroxypropylcellulose) (HPC)); 119 % of control (dose: 50.0 mg/kg/injection, schedule: Q01DX009 (ip), vehicle: Klucel (hydroxypropylcellulose) (HPC)). Also, the T/C under setting [1] is 111 % of control.

In the case of `CCC(c1ccc2cc(OC)ccc2c1)C(C)(C)C(=O)F` (configuration not stated), the T/C (dose: 25.0 mg/kg/injection, schedule: Q01DX009 (ip), vehicle: saline) was 94 % of control; the T/C (dose: 31.3 mg/kg/injection, schedule: Q01DX Z (sc), vehicle: steriod suspending solution) was 107 % of control; the T/C (dose: 50.0 mg/kg/injection, schedule: Q01DX001 (ip), vehicle: steriod suspending solution) was 98 % of control; the T/C (dose: 50.0 mg/kg/injection, schedule: Q01DX009 (ip), vehicle: saline) is 100 % of control; the T/C (dose: 62.5 mg/kg/injection, schedule: Q01DX Z (sc), vehicle: steriod suspending solution) was 110 % of control; the T/C (dose: 100.0 mg/kg/injection, schedule: Q01DX001 (ip), vehicle: steriod suspending solution) is 96 % of control. In addition, the T/C reads like this: (dose: 100.0 mg/kg/injection, schedule: Q04DX003 (ip), vehicle: acetone) 94 % of control; (dose: 125.0 mg/kg/injection, schedule: Q01DX Z (sc), vehicle: steriod suspending solution) 108 % of control; (dose: 250.0 mg/kg/injection, schedule: Q01DX Z (sc), vehicle: steriod suspending solution) 108 % of control.

For the compound `CCOC(=O)/C(C#N)=N/O`, the T/C was 94 % of control (dose: 18.8 mg/kg/injection, schedule: Q01DX009 (ip), vehicle: saline); 95 % of control (dose: 18.8 mg/kg/injection, schedule: Q04DX003 (ip), vehicle: saline); 91 % of control (dose: 37.5 mg/kg/injection, schedule: Q01DX009 (ip), vehicle: saline); 97 % of control (dose: 37.5 mg/kg/injection, schedule: Q04DX003 (ip), vehicle: saline); 97 % of control (dose: 75.0 mg/kg/injection, schedule: Q04DX003 (ip), vehicle: saline).

Turning to `CN1CC2C(N)N=C(N)NC2C1(C)C` (configuration not stated), the T/C reads like this: (dose: 100.0 mg/kg/injection, schedule: Q04DX002 (ip), vehicle: saline) 101 % of control; (dose: 200.0 mg/kg/injection, schedule: Q04DX002 (ip), vehicle: saline) 93 % of control; (dose: 400.0 mg/kg/injection, schedule: Q04DX002 (ip), vehicle: saline) 90 % of control.

Take `Nc1cccnc1Cl`: the T/C runs as follows: (dose: 100.0 mg/kg/injection, schedule: Q01DX009 (ip), vehicle: alcohol) 100 % of control; (dose: 100.0 mg/kg/injection, schedule: Q04DX003 (ip), vehicle: other) 92 % of control; (dose: 200.0 mg/kg/injection, schedule: Q01DX009 (ip), vehicle: alcohol) 96 % of control; (dose: 200.0 mg/kg/injection, schedule: Q04DX003 (ip), vehicle: other) 90 % of control; (dose: 400.0 mg/kg/injection, schedule: Q01DX009 (ip), vehicle: alcohol) 96 % of control; (dose: 400.0 mg/kg/injection, schedule: Q04DX003 (ip), vehicle: other) 93 % of control.

For `O=C(O)C(=S)Cc1cn[nH]n1`, the T/C reads like this: under setting [2], 103 % of control; under setting [3], 100 % of control.

Turning to `O=C1NC(c2ccco2)N2C(=O)NC(c3ccco3)N12` (configuration not stated), the T/C by setting is: (dose: 100.0 mg/kg/injection, schedule: Q01DX009 (ip), vehicle: gum acacia) 90 % of control; (dose: 100.0 mg/kg/injection, schedule: Q04DX003 (ip), vehicle: gum acacia) 101 % of control; (dose: 200.0 mg/kg/injection, schedule: Q01DX009 (ip), vehicle: gum acacia) 88 % of control; (dose: 200.0 mg/kg/injection, schedule: Q04DX003 (ip), vehicle: gum acacia) 95 % of control; (dose: 400.0 mg/kg/injection, schedule: Q01DX009 (ip), vehicle: gum acacia) 88 % of control; (dose: 400.0 mg/kg/injection, schedule: Q04DX003 (ip), vehicle: gum acacia) 106 % of control.

For `Nc1c(N=Nc2cccc([N+](=O)[O-])c2)c(S(=O)(=O)O)cc2cc(S(=O)(=O)O)c(N=Nc3ccc(-c4ccc(N=Nc5cc(S(=O)(=O)O)c6ccccc6c5O)cc4)cc3)c(O)c12`, the T/C is 94 % of control (dose: 50.0 mg/kg/injection, schedule: Q01DX010 (ip), vehicle: saline); 100 % of control (dose: 100.0 mg/kg/injection, schedule: Q01DX010 (ip), vehicle: saline); 92 % of control (dose: 200.0 mg/kg/injection, schedule: Q01DX010 (ip), vehicle: saline).

For `CCOC(O)C(F)(F)F` (configuration not stated), the T/C is 93 % of control (dose: 50.0 mg/kg/injection, schedule: Q01DX015 (ip), vehicle: saline); 98 % of control under setting [2]; 103 % of control (dose: 100.0 mg/kg/injection, schedule: Q01DX009 (ip), vehicle: acetone); 96 % of control (dose: 100.0 mg/kg/injection, schedule: Q01DX015 (ip), vehicle: saline); 112 % of control under setting [4]; 102 % of control (dose: 200.0 mg/kg/injection, schedule: Q01DX009 (ip), vehicle: acetone). Besides, the T/C by setting is: (dose: 200.0 mg/kg/injection, schedule: Q01DX015 (ip), vehicle: saline) 88 % of control; under setting [3], 102 % of control.

On to `CCCCCCCCCC[n+]1ccc(C(N)=O)cc1`, for which the T/C is, setting by setting: (dose: 5.0 mg/kg/injection, schedule: Q01DX009 (ip), vehicle: saline with Tween-80) 97 % of control; (dose: 5.0 mg/kg/injection, schedule: Q04DX003 (ip), vehicle: saline) 97 % of control; (dose: 10.0 mg/kg/injection, schedule: Q01DX009 (ip), vehicle: saline with Tween-80) 96 % of control; (dose: 10.0 mg/kg/injection, schedule: Q04DX003 (ip), vehicle: saline) 94 % of control; (dose: 20.0 mg/kg/injection, schedule: Q01DX009 (ip), vehicle: saline with Tween-80) 96 % of control; (dose: 20.0 mg/kg/injection, schedule: Q04DX003 (ip), vehicle: saline) 103 % of control.

Regarding `CN(C=O)c1ccc(C(=O)N(C(=O)NC2CCCCC2)C2CCCCC2)cc1`, the T/C is, setting by setting: under setting [2], 98 % of control; under setting [4], 93 % of control; under setting [3], 90 % of control.
